From patent publication US20200360531A1, “ANTIBODY DRUG CONJUGATES (ADCS) WITH NAMPT INHIBITORS” (Bayer Aktiengesellschaft, priority 2018, published 2020)
Values joined by “and” are separate entries in the source; they are usually repeats but may differ in a detail not shown here. Identical values can stand only once. Like-named read-outs stand apart in the source and are kept apart here.

Key:
MDA-MB-453 = assay: Cell proliferation assay, Cell Titer Glo (CTG) method, MDA-MB-453; format: cell-based
Protocol: (§1) Cell Proliferation Assay for Nampt-ADCs and Nampt-SMOLs
(§2) Cell Titer Glo (CTG) Method
(§3) To this end, 75 μL per well CTG solution (Promega, catalog #G755B and G756B) was added to cells in sister plates, incubated for 10 min, and luminescence was measured on a VICTOR V instrument (Perkin Elmer). After incubation for either 72 or 96 hrs (Table 1) in the presence of test compounds, 100 μl per well CTG solution was added to all test wells, incubated for 10 min and luminescence was measured on a VICTOR V instrument. […] The DRC software is a Biobook Spreadsheet that was developed by Bayer AG and Bayer Business Services on the IDBS E-Workbook Suite platform (IDBS: ID Business Solutions Ltd., Guildford, UK).

A549 C4.4a B4 = assay: Cell proliferation assay, Cell Titer Glo (CTG) method, A549 C4.4a B4; format: cell-based, human
Protocol: as §1, §2, §3

THP-1 = assay: Cell proliferation assay, Cell Titer Glo (CTG) method, THP-1; format: cell-based, human; details: 72 h
Protocol: as §1, §2, §3

U251 MG = assay: Cell proliferation assay, Cell Titer Glo (CTG) method, U251 MG; format: cell-based
Protocol: as §1, §2, §3

human NAMPT = biological target: T1, human NAMPT (Homo sapiens, UniProt P43490); assay: NAMPT biochemical assay (hNAMPT IC50), cascade assay with NMNAT1 and NAD/NADH-Glo detection; details: Table 2; replicate values on separate lines
T1 construct: N-terminally His6-tagged recombinant full length human NAMPT; His6 (N); made in house; host or cells: E. coli
T1 sequence (P43490 whole entry): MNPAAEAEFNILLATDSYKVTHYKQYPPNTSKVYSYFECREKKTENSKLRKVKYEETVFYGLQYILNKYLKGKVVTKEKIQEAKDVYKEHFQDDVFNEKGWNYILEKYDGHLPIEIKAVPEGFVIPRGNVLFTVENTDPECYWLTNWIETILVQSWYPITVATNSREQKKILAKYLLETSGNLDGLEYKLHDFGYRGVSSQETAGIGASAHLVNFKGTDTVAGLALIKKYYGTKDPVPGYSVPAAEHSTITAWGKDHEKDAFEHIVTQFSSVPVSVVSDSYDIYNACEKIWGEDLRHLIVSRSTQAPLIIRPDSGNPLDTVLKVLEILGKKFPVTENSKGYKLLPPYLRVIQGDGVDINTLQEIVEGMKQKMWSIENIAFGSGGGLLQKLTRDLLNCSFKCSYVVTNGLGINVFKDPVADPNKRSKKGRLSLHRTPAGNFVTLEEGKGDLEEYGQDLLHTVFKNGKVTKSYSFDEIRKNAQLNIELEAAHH
Description: NAMPT Biochemical Assay (hNAMPT IC50)
Nicotinamide phosphoribosyltransferase (NAMPT) inhibitory activity of compounds of the present invention was quantified employing a cascade assay as described in the following paragraphs. The assay couples the conversion of nicotinamide (NAM) to nicotinamide mononucleotide (NMN) by NAMPT with the conversion of NMN to […] adenine dinucleotide (NAD^+) by nicotinamide mononucleotide adenylyltransferase 1 (NMNAT1) and the subsequent quantification of the generated NAD^+ by a commercial detection kit (NAD/NADH-Glo™ Assay from Promega, #G9072).
N-terminally His6-tagged recombinant full length human NAMPT and N-terminally His6-tagged recombinant full length human NMNAT1, both expressed in E. coli and purified via Ni-NTA-affinity chromatography and consecutive size exclusion chromatography, were used as enzymes.
For the assay 50 nl of a 100 fold concentrated solution of the test compound in DMSO was pipetted into a white low volume 384 well microtiter plate (Greiner Bio-One, Frickenhausen, Germany), 2.5 μl of a solution of NAMPT in aqueous NMNAT1-containing assay buffer [50 mM Tris/HCl pH 7.5, 12 mM MgCl2, 0.6 mM adenosine-tri-phosphate (ATP), 1 nM NMNAT1, 0.02% (w/v) bovine serum albumin (Sigma-Aldrich #P7906), 0.001% (v/v) Tween-20 (Sigma-Aldrich #P7949)] were added and the mixture was incubated for 15 min at 22° C. to allow pre-binding of the test compounds to the enzyme before the start of the enzyme reaction. Then the reaction was started by the addition of 2.5 μl of a solution of NAM (300 nM=>final conc. in the 5 μl assay volume is 150 nM, Sigma-Aldrich #^47865) and 5-phosphorylribose-1-pyrophosphate pentasodium salt (PRPP, 1.2 μM=>final conc. in the 5 μl assay volume is 0.6 μM, Sigma-Aldrich P8296) in assay buffer and the resulting mixture was incubated for a reaction time of 20 min at 22° C. The concentration of NAMPT was adjusted depending of the activity of the enzyme lot and was chosen appropriate to have the assay in the linear range, typical final concentration in the 5 μl assay volume was 0.16 nM.
The resulting mixture was incubated 2 h at 22° C. to allow a steady-state of the detection system. Subsequently the generated luminescence was measured in a suitable luminescence reader, e.g. a Viewlux™ (Perkin-Elmer), and taken as a measure for the generated NAD^+.

[1] = Table 3 (ADCs), DSMZ cells, 72 h, read-out: MDA-MB-453 DSMZ 72 h IC^50
[2] = Table 3 (ADCs), 72 h, read-out: A549 C4.4a 72 h IC^50
[3] = Homo sapiens, A549, 72 h, Table 2, read-out: A549 C4.4a B4 72 h IC50
[4] = Homo sapiens, U-251, 72 h, Table 2
[5] = Homo sapiens, MDA-MB-453, 72 h, Table 2, read-out: MDA-MB-453 72 h IC50
[6] = Table 2, 72 h, read-out: A549 C4.4a B4 72 h IC50

| Compound | IC50 (human NAMPT) | IC50 (A549 C4.4a B4; [3]) [nM] | other results |
| --- | --- | --- | --- |
| 2 or 3-{[(2R)-2-Amino-2-carboxyethyl]sulfanyl}-4-{[2-({6-[3-{4-[(1,3-dihydro-2H-pyrrolo[3,4-c]pyridine-2-carbonyl)amino]phenyl}-6-oxo-5-(quinolin-5-yl)-5,6-dihydropyridazin-1(4H)-yl]hexyl}amino)-2-oxoethyl]amino}-4-oxobutanoic Acid [Example 30M] | – | – | IC50 (MDA-MB-453; [1]): 9.96 nM; IC50 (A549 C4.4a B4; [2]): > 300 nM; IC50 (THP-1; Table 3 (ADCs), read-out: THP-1 72 h IC^50): 81.1 nM; IC50 (U251 MG; Table 3 (ADCs), 72 h, read-out: U-251 72 h IC^50): > 300 nM |
| 2 or 3-{[(2R)-2-Amino-2-carboxyethyl]sulfanyl}-4-{[2-({6-[3-{4-[(1,3-dihydro-2H-pyrrolo[3,4-c]pyridine-2-carbonyl)amino]phenyl}-6-oxo-5-(quinolin-5-yl)pyridazin-1(6H)-yl]hexyl}amino)-2-oxoethyl]amino}-4-oxobutanoic Acid [Example 31M] | 0.26 nM and 0.311 nM | – | – |
| O=C(Nc1ccc(C2=NNC(=O)C(c3cccc4ncccc34)(C(F)(F)F)C2)cc1)N1Cc2ccncc2C1 (racemic) [Example 14, N-{4-[6-oxo-5-(quinolin-5-yl)-5-(trifluoromethyl)-1,4,5,6-tetrahydropyridazin-3-yl]phenyl}-1,3-dihydro-2H-pyrrolo[3,4-c]pyridine-2-carboxamide] | 0.317 nM and 0.387 nM | – | – |
| O=C1NN=C(c2ccc(NC(=O)N3Cc4ccncc4C3)cc2)CC1c1cccc2ncccc12 (stereo not shown) [Example 1, N-{4-[6-Oxo-5-(quinolin-5-yl)-1,4,5,6-tetrahydropyridazin-3-yl]phenyl}-1,3-dihydro-2H-pyrrolo[3,4-c]pyridine-2-carboxamide] | 1.06 nM and 1.21 nM and 1.26 nM and 1.39 nM | – | IC50 (THP-1; Homo sapiens, THP-1, Table 2): < 0.003 nM |
| NCCCCN1N=C(c2ccc(NC(=O)N3Cc4ccncc4C3)cc2)CC(c2cccc3ncccc23)C1=O (stereo not shown) [Example 2, N-{4-[1-(4-Aminobutyl)-6-oxo-5-(quinolin-5-yl)-1,4,5,6-tetrahydropyridazin-3-yl]phenyl}-1,3-dihydro-2H-pyrrolo[3,4-c]pyridine-2-carboxamide] | 0.35 nM and 0.365 nM | – | – |
| NCCCCCCN1N=C(c2ccc(NC(=O)N3Cc4ccncc4C3)cc2)CC(c2cccc3ncccc23)C1=O (stereo not shown) [Example 3, N-{4-[1-(6-Aminohexyl)-6-oxo-5-(quinolin-5-yl)-1,4,5,6-tetrahydropyridazin-3-yl]phenyl}-1,3-dihydro-2H-pyrrolo[3,4-c]pyridine-2-carboxamide] | 0.207 nM and 0.214 nM | – | – |
| O=C(Nc1ccc(-c2cc(-c3cccc4ncccc34)c(=O)[nH]n2)cc1)N1Cc2ccncc2C1 [Example 4, N-{4-[6-Oxo-5-(quinolin-5-yl)-1,6-dihydropyridazin-3-yl]phenyl}-1,3-dihydro-2H-pyrrolo[3,4-c]pyridine-2-carboxamide] | 1.16 nM and 1.22 nM | > 300 | IC50 (THP-1; Homo sapiens, THP-1, Table 2): 0.0171 nM; IC50 (U251 MG; [4]): 0.146 nM |
| NCCCCn1nc(-c2ccc(NC(=O)N3Cc4ccncc4C3)cc2)cc(-c2cccc3ncccc23)c1=O [Example 5, N-{4-[1-(4-Aminobutyl)-6-oxo-5-(quinolin-5-yl)-1,6-dihydropyridazin-3-yl]phenyl}-1,3-dihydro-2H-pyrrolo[3,4-c]pyridine-2-carboxamide] | 0.147 nM and 0.176 nM | – | – |
| Cc1nnc(C2CC(c3ccc(NC(=O)N4Cc5ccncc5C4)cc3)=NN(CCCCCCN)C2=O)o1 (stereo not shown) [Example 11, N-{4-[1-(6-Aminohexyl)-5-(5-methyl-1,3,4-oxadiazol-2-yl)-6-oxo-1,4,5,6-tetrahydropyridazin-3-yl]phenyl}-1,3-dihydro-2H-pyrrolo[3,4-c]pyridine-2-carboxamide] | 0.318 nM and 0.379 nM | > 300 | IC50 (THP-1; Homo sapiens, THP-1, Table 2): < 0.003 nM; IC50 (U251 MG; [4]): 2.82 nM |
| O=C(Nc1ccc(C2=NNC(=O)[C@@](c3cccc4ncccc34)(C(F)(F)F)C2)cc1)N1Cc2ccncc2C1 [Example 12, N-{4-[(5R)-6-oxo-5-(quinolin-5-yl)-5-(trifluoromethyl)-1,4,5,6-tetrahydropyridazin-3-yl]phenyl}-1,3-dihydro-2H-pyrrolo[3,4-c]pyridine-2-carboxamide] | 0.539 nM and 0.551 nM | 0.472 | IC50 (THP-1; Homo sapiens, THP-1, Table 2): < 0.003 nM; IC50 (U251 MG; [4]): < 0.03 nM |
| NCCCCCCN1N=C(c2ccc(NC(=O)N3Cc4ccncc4C3)cc2)CC(c2cccc3ncccc23)(C(F)(F)F)C1=O (stereo not shown) [Example 15, N-{4-[1-(6-Aminohexyl)-6-oxo-5-(quinolin-5-yl)-5-(trifluoromethyl)-1,4,5,6-tetrahydropyridazin-3-yl]phenyl}-1,3-dihydro-2H-pyrrolo[3,4-c]pyridine-2-carboxamide] | 0.309 nM and 0.363 nM | – | IC50 (MDA-MB-453; [5]): < 0.03 nM |
| O=C(Nc1ccc(-c2cc(-c3ccc4[nH]ncc4c3)c(=O)n(CC(F)(F)F)n2)cc1)N1Cc2ccncc2C1 [Example 22, N-{4-[5-(1H-indazol-5-yl)-6-oxo-1-(2,2,2-trifluoroethyl)-1,6-dihydropyridazin-3-yl]phenyl}-1,3-dihydro-2H-pyrrolo[3,4-c]pyridine-2-carboxamide] | 0.111 nM and 0.144 nM | 4.88 | IC50 (MDA-MB-453; [5]): < 0.03 nM |
| O=C(Nc1ccc(-c2cc(-c3cccc4[nH]cnc34)c(=O)[nH]n2)cc1)N1Cc2ccncc2C1 [Example 26, N-{4-[5-(1H-Benzimidazol-4-yl)-6-oxo-1,6-dihydropyridazin-3-yl]phenyl}-1,3-dihydro-2H-pyrrolo[3,4-c]pyridine-2-carboxamide] | 0.167 nM and 0.207 nM | 111 | IC50 (MDA-MB-453; [5]): < 0.03 nM |
| N[C@@H](CSC1CC(=O)N(CCCCCC(=O)NCCCCCCn2nc(-c3ccc(NC(=O)N4Cc5ccncc5C4)cc3)cc(-c3cccc4ncccc34)c2=O)C1=O)C(=O)O (stereo partly drawn) [Example 29M, S-{1-[6-({6-[3-{4-[(1,3-Dihydro-2H-pyrrolo[3,4-c]pyridine-2-carbonyl)amino]phenyl}-6-oxo-5-(quinolin-5-yl)pyridazin-1(6H)-yl]hexyl}amino)-6-oxohexyl]-2,5-dioxopyrrolidin-3-yl}-L-cysteine] | 0.441 nM and 0.637 nM | – | – |
| NCCCCCCN1N=C(c2ccc(NC(=O)N3Cc4ccncc4C3)cc2)CC(c2ccc3cccnc3c2)C1=O (stereo not shown) [Example 45, N-{4-[1-(6-Aminohexyl)-6-oxo-5-(quinolin-7-yl)-1,4,5,6-tetrahydropyridazin-3-yl]phenyl}-1,3-dihydro-2H-pyrrolo[3,4-c]pyridine-2-carboxamide hydrogen chloride] | 0.223 nM and 0.241 nM and 0.277 nM and 0.343 nM | 32 | IC50 (A549 C4.4a B4; [6]): 49.7 nM |
| N-[2 or 3-{[(2R)-2-amino-2-carboxyethyl]sulfanyl}-3-carboxypropanoyl]glycyl-N-{6-[3-{4-[(1,3-dihydro-2H-pyrrolo[3,4-c]pyridine-2-carbonyl)amino]phenyl}-6-oxo-5-(quinolin-5-yl)-5,6-dihydropyridazin-1(4H)-yl]hexyl}-N^6-(26-oxo-2,5,8,11,14,17,20,23-octaoxahexacosan-26-yl)-L-lysinamide [Example 36M] | 1.03 nM and 1.05 nM | – | IC50 (MDA-MB-453; Table 2, 72 h, read-out: MDA-MB-453 72 h IC50): 18 nM; IC50 (A549 C4.4a B4; [6]): 299 nM |
| [(32S,39S)-39-carboxy-32-({6-[(5S)-3-{4-[(1,3-dihydro-2H-pyrrolo[3,4-c]pyridine-2-carbonyl)amino]phenyl}-6-oxo-5-(quinolin-5-yl)-5,6-dihydropyridazin-1(4H)-yl]hexyl}carbamoyl)-26,34,37-trioxo-2,5,8,11,14,17,20,23-octaoxa-27,33,36-triazanonatriacontan-39-yl]sulfanediyl [Example 36Db] | – | – | IC50 (MDA-MB-453; [1]): 7.24 nM; IC50 (A549 C4.4a B4; [2]): 3.13 nM |
